Reference: the NIST ThermoML archive (doi:10.1021/je3010535)
Several values for one entry are separate records, joined by “and”; a condition that tells them apart may be missing. Equal entries are not always repeated. ± gives the expanded uncertainty stated by the source.

Columns and labels:
[1] = Henry's Law constant (molality scale); of the first substance listed, at infinite dilution; mn = molality of the nth substance listed, in mol/kg; conditions: Liquid, Chromatography, m1 = 0
[2] = Henry's Law constant (molality scale); of the first substance listed, at infinite dilution; xn = mol fraction of the nth substance listed; conditions: Liquid, Chromatography, x1 = 0

| SMILES | Henry's Law constant ([1]; 274.15 K) [kPa·kg/mol] | Henry's Law constant ([1]; 294.65 K) | Henry's Law constant ([1]; 296.15 K) [kPa·kg/mol] | Henry's Law constant ([1]; 310.15 K) [kPa·kg/mol] | Henry's Law constant ([1]; 326.15 K) [kPa·kg/mol] | Henry's Law constant ([1]; 331.15 K) [kPa·kg/mol] | Henry's Law constant ([1]; 320.15 K) [kPa·kg/mol] | Henry's Law constant ([1]; 313.15 K) [kPa·kg/mol] | Henry's Law constant ([1]; 333.15 K) [kPa·kg/mol] | Henry's Law constant ([2]; 274.15 K) [kPa·kg/mol] | Henry's Law constant ([2]; 294.65 K) | Henry's Law constant ([2]; 296.15 K) [kPa·kg/mol] | Henry's Law constant ([2]; 310.15 K) [kPa·kg/mol] | Henry's Law constant ([2]; 313.15 K) [kPa·kg/mol] | Henry's Law constant ([2]; 326.15 K) [kPa·kg/mol] | Henry's Law constant ([2]; 331.15 K) [kPa·kg/mol] |
| --- | --- | --- | --- | --- | --- | --- | --- | --- | --- | --- | --- | --- | --- | --- | --- | --- |
| ClCC(Cl)(Cl)Cl [1,1,1,2-tetrachloroethane] + O | 60.3 ± 18 | 184 kPa·kg/mol and 168 kPa·kg/mol | 199 ± 60 | 388 ± 120 | 832 ± 250 | 1090 ± 330 | – | – | – | – | – | – | – | – | – | – |
| ClCC(Cl)Cl [1,1,2-trichloroethane] + O | 16.9 ± 5.1 | 62 kPa·kg/mol and 60.4 kPa·kg/mol | 65 ± 20 | 148 ± 44 | – | 419 ± 130 | 263 ± 79 | – | – | – | – | – | – | – | – | – |
| Clc1ccc(Cl)c(Cl)c1 [1,2,4-trichlorobenzene] + O | 26.9 ± 11 | 75.2 kPa·kg/mol and 81.4 kPa·kg/mol | 83.2 ± 33 | 148 ± 59 | 730 ± 290 | 425 ± 170 | 260 ± 100 | – | – | – | – | – | – | – | – | – |
| Cc1ccc(C)c(C)c1 [1,2,4-trimethylbenzene] + O | 82.9 ± 33 | 235 kPa·kg/mol and 255 kPa·kg/mol | 292 ± 120 | 497 ± 200 | 1770 ± 710 | 1390 ± 550 | – | 974 ± 390 | – | – | – | – | – | – | – | – |
| BrCCBr [1,2-dibromoethane] + O | 12.7 ± 3.8 | 54.1 kPa·kg/mol and 41.2 kPa·kg/mol | 57.8 ± 17 | 130 ± 39 | – | 333 ± 100 | 218 ± 66 | – | – | – | – | – | – | – | – | – |
| Cc1ccccc1C [1,2-dimethylbenzene] + O | 96.1 ± 29 | 281 kPa·kg/mol and 291 kPa·kg/mol | 318 ± 95 | 321 ± 96 | 1400 ± 420 | 1360 ± 410 | – | 781 ± 230 | – | – | – | – | – | – | – | – |
| Clc1cccc(Cl)c1 [1,3-dichlorobenzene] + O | 50.3 ± 20 | 160 kPa·kg/mol and 164 kPa·kg/mol | 185 ± 74 | 309 ± 120 | 967 ± 390 | 768 ± 310 | 519 ± 210 | 552 ± 220 | – | – | – | – | – | – | – | – |
| ClCCCCl [1,3-dichloropropane] + O | 18.8 ± 5.6 | 65 kPa·kg/mol and 65.9 kPa·kg/mol | 70.6 ± 21 | 156 ± 47 | – | 421 ± 130 | 287 ± 86 | – | – | – | – | – | – | – | – | – |
| Cc1cccc(C)c1 [1,3-dimethylbenzene] + O | 147 ± 59 | 381 kPa·kg/mol and 439 kPa·kg/mol | 457 ± 180 | – | 2090 ± 840 | 1810 ± 730 | – | 1170 ± 470 | – | – | – | – | – | – | – | – |
| Clc1ccc(Cl)cc1 [1,4-dichlorobenzene] + O | 52.8 ± 21 | 136 kPa·kg/mol and 149 kPa·kg/mol | 160 ± 64 | 263 ± 110 | 804 ± 320 | 686 ± 270 | 451 ± 180 | 476 ± 190 | – | – | – | – | – | – | – | – |
| Cc1ccc(C)cc1 [1,4-dimethylbenzene] + O | 147 ± 59 | 381 kPa·kg/mol and 439 kPa·kg/mol | 457 ± 180 | – | 2090 ± 840 | 1810 ± 730 | – | 1170 ± 470 | – | – | – | – | – | – | – | – |
| CCCCC(C)=O [2-hexanone] + O | 0.551 ± 0.17 | 4.89 kPa·kg/mol and 5.91 kPa·kg/mol | 7.07 ± 2.1 | 17.9 ± 5.4 | – | 122 ± 36 | 48.2 ± 14 | – | 136 ± 41 | – | – | – | – | – | – | – |
| CC(C)(C)c1ccccc1 [(1,1-dimethylethyl)benzene] + O | 189 ± 75 | 448 kPa·kg/mol and 554 kPa·kg/mol | 562 ± 220 | 1020 ± 410 | 3330 ± 1300 | 2160 ± 860 | – | 2070 ± 830 | – | – | – | – | – | – | – | – |
| CCC(C)c1ccccc1 (centres undefined) [(1-methylpropyl)benzene] + O | 251 | – | 634 | 1100 | 4160 | 2310 | – | 2690 | – | – | – | – | – | – | – | – |
| Cl/C=C/CCl [(E)-1,3-dichloro-1-propene] + O | 52.9 ± 16 | 144 kPa·kg/mol | 153 ± 46 | 300 ± 90 | – | 929 ± 280 | – | – | – | – | – | – | – | – | – | – |
| Cl/C=C\CCl [(Z)-1,3-dichloro-1-propene] + O | 25.3 ± 7.6 | 87.5 kPa·kg/mol and 89.1 kPa·kg/mol | 94.4 ± 28 | 202 ± 61 | – | 657 ± 200 | 386 ± 120 | – | – | – | – | – | – | – | – | – |
| c1ccccc1 [benzene] + O | 193 ± 58 | 480 kPa·kg/mol and 474 kPa·kg/mol | 528 ± 160 | 1190 ± 360 | 1410 ± 420 | 2240 ± 670 | – | 832 ± 250 | – | – | – | – | – | – | – | – |
| Clc1ccccc1 [chlorobenzene] + O | 83.7 ± 25 | 246 kPa·kg/mol and 238 kPa·kg/mol | 270 ± 81 | 423 ± 130 | 1050 ± 310 | 1180 ± 350 | – | 532 ± 160 | – | – | – | – | – | – | – | – |
| ClC(Br)Br [chlorodibromomethane] + O | 22.7 ± 6.8 | 80.5 kPa·kg/mol and 82.2 kPa·kg/mol | 85.7 ± 26 | 179 ± 54 | – | 536 ± 160 | 327 ± 98 | – | – | – | – | – | – | – | – | – |
| CCc1ccccc1 [ethylbenzene] + O | 162 | – | 533 | – | 2320 | 1830 | – | 1290 | – | – | – | – | – | – | – | – |
| CC(C)c1ccccc1 [isopropylbenzene] + O | 212 ± 64 | 536 kPa·kg/mol and 588 kPa·kg/mol | 622 ± 190 | 1380 ± 410 | 3260 ± 980 | 3130 ± 940 | – | 1960 ± 590 | – | – | – | – | – | – | – | – |
| CC1CCCCC1 [methylcyclohexane] + O | 1060 ± 320 | 2350 kPa·kg/mol and 2300 kPa·kg/mol | 2010 ± 600 | – | 15600 ± 4700 | – | – | 9440 ± 2800 | – | – | – | – | – | – | – | – |
| C=Cc1ccccc1 [styrene] + O | 62.4 ± 19 | 196 kPa·kg/mol | 224 ± 67 | 382 ± 110 | 925 ± 280 | 972 ± 290 | – | 507 ± 150 | – | – | – | – | – | – | – | – |
| ClC(Cl)=C(Cl)Cl [tetrachloroethene] + O | 320 ± 130 | 755 kPa·kg/mol and 879 kPa·kg/mol | 813 ± 330 | 2470 ± 990 | 2750 ± 1100 | 5600 ± 2200 | – | 2240 ± 900 | – | – | – | – | – | – | – | – |
| Cc1ccccc1 [toluene] + O | 164 ± 49 | 459 kPa·kg/mol and 470 kPa·kg/mol | 489 ± 150 | 316 ± 95 | 1840 ± 550 | 3030 ± 910 | – | 982 ± 290 | – | – | – | – | – | – | – | – |
| ClC(Cl)Cl [trichloromethane] + O | – | – | – | – | – | – | – | – | – | 107 ± 32 | 301 kPa·kg/mol and 324 kPa·kg/mol | 363 ± 110 | 782 ± 230 | 628 ± 190 | 1170 ± 350 | 1770 ± 530 |
